In patent US7786152B2, “Compound” (priority 2002, dated 2010):

Experiments:
11 β-HSD type 1 = biological target: T1, 11 β-HSD type 1 (Rattus norvegicus, UniProt P16232); experiment: 11 β-HSD type 1 inhibition, rat liver homogenate, conversion E to F (radiometric TLC); type: biochemical; conditions: read-out: % inhibition of 11β HSD1 @ 10 μM, 10 μM, typical sd ± 5%, means n=2
T1 construct: Both the kidneys and livers were homogenised on ice in PBS-sucrose buffer; tissue Harlan Olac (rats); host or cells: Wistar rat liver homogenate supernatant
Protocol: (§1) Enzymes—Rat livers and rat kidneys were obtained from normal Wistar rats (Harlan Olac, Bicester, Oxon, UK). Both the kidneys and livers were homogenised on ice in PBS-sucrose buffer (1 g/10 ml) using an Ultra-Turrax. After the livers and kidneys were homogenised the homogenate was centrifuged for five minutes at 4000 rpm. The supernatant obtained was removed and stored in glass vials at −20° C. The amount of protein per μl of rat liver and kidney cytosol was determined using the Bradford method.
11 β-HSD type 1 is the enzyme responsible for the conversion E to F and this type of enzyme is present in rat liver. The substrate solution used in this assay contained 70,000 cpm/ml ^3H-E in PBS-sucrose and 0.5 μM of unlabelled E and co-factor NADPH (9 mg/10 ml of substrate solution). 1 ml of the substrate solution and the different amounts of rat liver homogenate was added to all tubes.
The amount of rat liver homogenate needed for an assay was determined by incubating the substrate solution with 25, 50, 100 and 150 μl for 30, 60, 90 and 120 minutes at 37° C. in a water bath with the tubes being mechanically shaken. After the incubation 50 μL of recovery solution was added, containing about 8,000 cpm/50 μL of ^14C—F and 50 μg/50 μL of unlabelled F for visualising the spot on the TLC-plate, to correct for the losses made in the next two steps. F was then extracted from the aqueous phase with 4 ml of ether (2×30 sec cycle, vortex mix). The aqueous phase was then frozen using dry-ice and the organic layer was decanted and poured into smaller tubes and evaporated. 6 drops of ether were then added to the small tubes to re-dissolve the residue which was transferred to an aluminium thin layer chromatography plate (TLC-plate). The TLC-plate was developed in a TLC tank under saturated conditions. The solvent system used was chloroform:methanol 9:1 (v/v). The F spots on the TLC-plate were visualised under UV-light and cut out from the TLC-plate (Rf=0.45). The spots from the TLC-plate were then put into scintillation vials and 0.5 ml of methanol was added to all vials to elute the radioactivity from the TLC-plate for 5 minutes. 10 ml of Ecoscint was added to the scintillation vials and they were put into the scintillation counter to count amount of product formed.
(§2) In these assays the influence of different inhibitors on the 11 β-HSD activity both in reductive (type 1) and oxidative (type 2) directions were assessed. In the reductive direction E is the substrate and F the product and visa versa in the case of oxidation. The method described here is for the oxidative direction.
The substrate solution contained about 50,000 cpm/ml ^3H—F in PBS-sucrose and 0.5 μM F. 1 ml of the substrate solution was added to each tube, the inhibitors were also added, at a 10 μM concentration, to each tube except to the “control” and “blank” tubes. 150 μL was added to all tubes except to the blanks, this was done to correct for the amount of ^3H—F spontaneously formed. The tubes were incubated for 60 minutes in a mechanically shaken water bath at 37° C. The amount of kidney liver homogenate and incubation time used resulted from the enzyme- and time-dependency assay. After incubation 50 μL of recovery was added to correct for the losses made in the next steps, containing 5000 cpm/50 μL of ^14C-E and 50 μg/50 μL of unlabelled E (to visualise the spot on the TLC-plate). The aqueous mixture was then extracted with 4 ml of ether (2×30 sec cycle, vortex mix). After freezing the aqueous phase, the ether (upper) layer was decanted into smaller tubes and evaporated at 45° C. until completely dry. The residue was then re-dissolved in 6 drops of ether and transferred to a TLC-plate. The TLC-plate was developed in chloroform:methanol (9:1 v/v) solvent system, the TLC-plate ran for about 90 minutes until the solvent front had moved about 18 cm. The position of the product E was visualised under UV-light and cut out from the TLC-plate and put into scintillation vials. […]

11 β-HSD type 2 = biological target: T2, 11 β-HSD type 2 (Rattus norvegicus, UniProt P50233); experiment: 11 β-HSD type 2 inhibition, rat kidney homogenate, conversion F to E (radiometric TLC); type: biochemical; conditions: read-out: % inhibition of 11β HSD2 @ 10 μM, typical sd ± 5%, means n=2
T2 construct: Both the kidneys and livers were homogenised on ice in PBS-sucrose buffer; tissue Harlan Olac (rats); host or cells: Wistar rat kidney homogenate supernatant
T2 sequence (P50233 1-400): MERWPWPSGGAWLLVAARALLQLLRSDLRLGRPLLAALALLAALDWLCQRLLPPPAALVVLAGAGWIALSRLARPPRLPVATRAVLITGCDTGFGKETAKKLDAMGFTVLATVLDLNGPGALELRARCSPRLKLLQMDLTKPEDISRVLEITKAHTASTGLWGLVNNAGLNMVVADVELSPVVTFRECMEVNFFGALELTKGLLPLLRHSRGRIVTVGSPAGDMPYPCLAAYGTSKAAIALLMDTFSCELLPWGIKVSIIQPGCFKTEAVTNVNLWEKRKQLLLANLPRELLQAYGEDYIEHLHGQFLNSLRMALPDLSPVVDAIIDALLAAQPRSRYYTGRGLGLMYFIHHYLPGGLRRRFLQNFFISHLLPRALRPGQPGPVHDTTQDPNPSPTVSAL
Protocol: as §1
The same procedure was used for the 11 β-HSD type 2 assay, the conversion F to E, to determine the amount of rat kidney to be used and the incubation time. Except this time the substrate solution contained ^3H—F and unlabelled F and the recovery contained ^14C-E and unlabelled E and cortisone has a Rf value of 0.65 on the TLC-plate.
as §2
The substrate solution contained about 50,000 cpm/ml ^3H—F in PBS-sucrose and 0.5 μM F. 1 ml of the substrate solution was added to each tube, the inhibitors were also added, at a 10 μM concentration, to each tube except to the “control” and “blank” tubes. 150 μL was added to all tubes except to the blanks, this was done to correct for the amount of ^3H—F spontaneously formed. The tubes were incubated for 60 minutes in a mechanically shaken water bath at 37° C. The amount of kidney liver homogenate and incubation time used resulted from the enzyme- and time-dependency assay. After incubation 50 μL of recovery was added to correct for the losses made in the next steps, containing 5000 cpm/50 μL of ^14C-E and 50 μg/50 μL of unlabelled E (to visualise the spot on the TLC-plate). The aqueous mixture was then extracted with 4 ml of ether (2×30 sec cycle, vortex mix). After freezing the aqueous phase, the ether (upper) layer was decanted into smaller tubes and evaporated at 45° C. until completely dry. The residue was then re-dissolved in 6 drops of ether and transferred to a TLC-plate. The TLC-plate was developed in chloroform:methanol (9:1 v/v) solvent system, the TLC-plate ran for about 90 minutes until the solvent front had moved about 18 cm. The position of the product E was visualised under UV-light and cut out from the TLC-plate and put into scintillation vials. Radioactivity was eluted over 5 minutes with 0.5 ml methanol. 0.5 ml of PBS-sucrose and 10 ml of Ecoscint were then added and vortex mixed before counting in the scintillation counter. Before counting the samples, two total activity vials were prepared. These contained 0.5 ml of the substrate solution, 50 μL of the recovery, 0.5 ml of methanol and 10 ml of Ecoscint. These two total activity vials were needed to determine the amount of ^14C-E and ^3H—F added in the beginning to make the calculations.
To look at the percentage of inhibition four different concentrations, 1, 5, 10 and 20 μM, were used. The method for both the rat liver, type 1 the reductive, and rat kidney, type 2 the oxidative, stay the same throughout the entire experiment.
In this experiment the amount of rat liver homogenate and rat kidney homogenate added to each tube and the incubation time was determined. […] After drawing the graphs the optimal amount of rat liver cytosol and rat kidney cytosol and both their incubation times were selected. One important rule when selecting both variables, to select an amount of rat liver and rat kidney and incubation time on a linear part of the graph. This is done to avoid fluctuations in enzyme activity. The amount of rat liver cytosol selected was 25 μL and 90 minutes of incubation time, the amount of rat kidney cytosol selected was 150 μL and 60 minutes of incubation time. […]

T1 sequence (P16232 whole entry): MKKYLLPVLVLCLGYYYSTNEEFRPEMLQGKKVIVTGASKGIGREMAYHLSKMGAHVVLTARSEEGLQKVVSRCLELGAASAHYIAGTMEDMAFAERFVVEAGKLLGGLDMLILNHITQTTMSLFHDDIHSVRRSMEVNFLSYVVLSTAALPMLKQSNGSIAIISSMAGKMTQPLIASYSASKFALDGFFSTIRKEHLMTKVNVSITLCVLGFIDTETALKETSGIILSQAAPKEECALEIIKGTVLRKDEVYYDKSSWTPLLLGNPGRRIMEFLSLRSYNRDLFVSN

SMILES | inhibition at 10 µM (11 β-HSD type 1) [%] | inhibition at 10 µM (11 β-HSD type 2) [%] | melting point [°C]
Cc1nc2cc(NS(=O)(=O)c3c(C)c(C)c4c(c3C)CCC(C)(C)O4)ccc2s1 [compound 713] | 26 | 3 | –
Cc1c(Cl)cccc1S(=O)(=O)Nc1ccc2c(c1)nc(C)n2-c1ccccc1 | – | – | 254 to 256
COCCSc1nc2ccc(NS(=O)(=O)c3cccc(Cl)c3C)cc2s1 [compound 754] | 20 | 6 | –
CC(=O)Nc1ccc(S(=O)(=O)Nc2ccc3sc(C)nc3c2)cc1 [compound 711] | 37 | 6 | –
Cc1c(Cl)cccc1S(=O)(=O)Nc1ccc2nc(C)n(CCO)c2c1 | – | – | 213 to 214.5
CCN(CC)C(=O)CSc1nc2ccc(NS(=O)(=O)c3cccc(Cl)c3C)cc2s1 [compound 755] | 21 | 8 | –
COc1ccc(S(=O)(=O)Nc2ccc3sc(C)nc3c2)cc1OC [compound 707] | 21 | 11 | –
Cc1nc2cc(N(S(=O)(=O)c3ccccc3C#N)S(=O)(=O)c3ccccc3C#N)ccc2s1 [compound 731] | 45 | 12 | –
Cc1c(Cl)cccc1S(=O)(=O)Nc1ccc2nc(C)n(C)c2c1 | – | – | 265 to 266
Cc1c(Cl)cccc1S(=O)(=O)Nc1ccc2[nH]c(=O)sc2c1 [compound 753] | 8 | 2 | –
CCOC(=O)CSc1nc2ccc(NS(=O)(=O)c3cccc(Cl)c3C)cc2s1 [compound 752] | 5 | 1 | –
Cc1c(Cl)cccc1S(=O)(=O)Nc1ccc2c(c1)nc(C)n2CCO | – | – | 245 to 247
Cc1nc2cc(NS(=O)(=O)c3c(C)c(C)cc(C)c3C)ccc2s1 [compound 706] | 29 | 7 | –
CC(=O)c1ccccc1S(=O)(=O)N(c1ccc2sc(C)nc2c1)S(=O)(=O)c1ccccc1C(C)=O [compound 730] | 32 | 9 | –
Cc1c(Cl)cccc1S(=O)(=O)Nc1ccc2ncsc2c1 [compound 750] | 4 | 10 | –
Cc1nc2cc(NS(=O)(=O)c3c(F)c(F)c(F)c(F)c3F)ccc2s1 [compound 712] | 24 | 3 | –
